Source: patent US4994258A, “Gamma emitting, CCK-A antagonists for pancreatic imaging” (Merck & Co., Inc., priority 1990, dated 1991)

Tests used:
CCK-A receptors [1] = conditions: mice, ^3 H and ^11 C labeled, high specific activity, 4 hours post intravenous injection; cited from earlier work
[2] = mice; cited from earlier work
CCK-A receptors [3] = assay: In vivo distribution of tritiated radioligand in pancreas; conditions: pancreas, tritiated radioligand
Procedure: (§1) Animals were euthanized at various times (15 min to 2 hr), and organs of interest removed for assay. Biopsy samples were counted in an autogamma counter (50% counting efficiency) for ^123 I labeled radioligand. For the tritiated radioligand, in rats and rabbits, 10 to 50 mg samples of pancreas and, in rats, several regions of CNS (cortex, interpeduncular nucleus, and substantial nigra) were solubilized in protosol® (New England Nuclear). Liquid scintillation cocktail was added and the samples were dark adapted for 16 hours, then counted in a liquid scintillation counter with automatic quench correction. Results were the average of at least five animals and were expressed as % dose/g (wet weight).

[4] = as above; conditions: in vivo, iv
Procedure: as §1

CCK-A receptors [5] = assay: In vivo distribution after coinjection of unlabeled carboxamide (receptor-mediated binding); parameters: species or system rats; conditions: coinjection 0.4 mg/kg, rat pancreas (Table 3)
Procedure: Animals were euthanized at various times (15 min to 2 hr), and organs of interest removed for assay. […] […] Liquid scintillation cocktail was added and the samples were dark adapted for 16 hours, then counted in a liquid scintillation counter with automatic quench correction. Results were the average of at least five animals and were expressed as % dose/g (wet weight).

[6] = cited from earlier work

CN1C(=O)[C@@H](NC(=O)c2cc3ccccc3[nH]2)N=C(c2ccccc2)c2ccccc21 [N-(2,3 Dihydro-1-methyl-2-oxo-5-phenyl-1H-1,4-benzodiazepine-3-yl) -1H-indole-2-carboxamide]
localization in the pancreas (CCK-A receptors [1]): 76 % dose/gram

Cc1cc([131I])cc(CN(C)CCCN(C)C)c1O [[^131 I]HIPDM, [^131 I]N, N, N'-trimethyl-N'-(2-hydroxy-3-methyl-5-iodobenzyl)-1,3-propanediamine]
localization in the pancreas [2]: localizes in the pancreas

CN1C(=O)C(NC(=O)c2cc3ccccc3[nH]2)N=C(c2ccccc2)c2ccccc21 (stereo in doubt) [[^3 H](R)-N-(2,3-dihydro-1-methyl-2-oxo-5-phenyl-1H-1,4-benzodiazepin-3-yl)-1H-indole-2-carboxamide]
receptor-mediated part of localization in the pancreas (CCK-A receptors [3]): 90%
tissue uptake ([4]; 1 mg/kg): 0.25 %ID/g
tissue uptake ([4]; 10 uCi): 2.1 %ID/g

CN1C(=O)[C@H](NC(=O)c2cc3ccccc3[nH]2)N=C(c2ccccc2)c2ccccc21 [(R)-N-(2,3-dihydro-1-methyl-2-oxo-5-phenyl-1H-1,4-benzodiazepin-3-yl) -1H-indole-2-carboxamide, reference compound]
reduction of localization (of the [^123 I] radioligand in rat pancreas) by coinjection (CCK-A receptors [5]): 60-70%

C[75Se]CC[C@H](N)C(=O)O [^75 Se-selenomethionine]
biological clearance ([6]; in vivo): slow biological clearance
tracer localizing in the pancreas ([6]; in vivo): 5-7%
uptake in adjacent organs ([6]; primarily the liver): high uptake in adjacent organs, primarily the liver
